Patent publication US9376415B2, “Tricyclic condensed heterocyclic compound, process of producing same, and use thereof” (NIPPON SUISAN KAISHA, LTD., priority 2009, dated 2016)

Assays:
Format in all cases: cell-based
[1] = tested on: NCI-H460; test: Cell growth inhibitory activity (Almar Blue), NCI-H460; settings: Homo sapiens; NCI-H460 cancer cells, cultured for 72 hours
Procedure: (§1) The cell growth inhibitory activity of Compound 1 was evaluated using 4 types of cancer cells. The cancer cells used were human cancer cells (HT-29, A431, NCI-H460, […]). Compound 1 was dissolved in DMSO. One hundred […] of a suspension of cancer cells was charged in each 96 well micro plate (1.0 to 3.0×10^3 cells/well). After 24 hours, each of solutions of Compounds 1 to 6 was added in an amount of 2 ml to 100 ml of culture fluid to give final concentrations of […] and cultured for 72 hours. Thereafter, 20 ml of an Almar Blue reagent was added to each solution, followed by culturing for 6 hours.

[2] = tested on: U937; test: Cell growth inhibitory activity (Almar Blue), U937; settings: Homo sapiens, U-937; U937 cancer cells, cultured for 72 hours
Procedure: as §1

[3] = tested on: HT-29; test: Cell growth inhibitory activity (Almar Blue), HT-29; settings: Homo sapiens; HT-29 cancer cells, cultured for 72 hours
Procedure: as §1
The cell growth inhibitory activity of Compound 6 was evaluated using cancer cells (HT-29). The method for the evaluation was the same as the method by which Compound 1 was evaluated.

[4] = tested on: PC-3; test: Cell growth inhibitory activity (Almar Blue), PC-3; settings: Homo sapiens; PC-3 cancer cells, cultured for 72 hours

IC50 [1] [nM]	IC50 [2] [nM]	IC50 [3] [nM]	IC50 [4] [nM]	Structure (SMILES)
580	1100	590	820	C/C=C(/C)C1OC2C(C)=CC(C)(/C=C/C(=O)O)C3C(C)=CC1(C)C23C (centres unmarked) [Compound 1]
–	–	310	–	C=C1C(O)C(C)(/C=C/C(=O)O)C2C(C)=CC3(C)C(/C(C)=C\C)OC1C23C (centres unmarked) [Compound 6]
